Target: MurC (UDP-N-acetylmuramic acid:L-alanine ligase) (Escherichia coli, UniProt P17952)
Experiment: Malachite green phosphate detection enzyme assay with […] MurC
Format: biochemical

MurC (UDP-N-acetylmuramic acid:L-alanine ligase), sequence (P17952 whole entry): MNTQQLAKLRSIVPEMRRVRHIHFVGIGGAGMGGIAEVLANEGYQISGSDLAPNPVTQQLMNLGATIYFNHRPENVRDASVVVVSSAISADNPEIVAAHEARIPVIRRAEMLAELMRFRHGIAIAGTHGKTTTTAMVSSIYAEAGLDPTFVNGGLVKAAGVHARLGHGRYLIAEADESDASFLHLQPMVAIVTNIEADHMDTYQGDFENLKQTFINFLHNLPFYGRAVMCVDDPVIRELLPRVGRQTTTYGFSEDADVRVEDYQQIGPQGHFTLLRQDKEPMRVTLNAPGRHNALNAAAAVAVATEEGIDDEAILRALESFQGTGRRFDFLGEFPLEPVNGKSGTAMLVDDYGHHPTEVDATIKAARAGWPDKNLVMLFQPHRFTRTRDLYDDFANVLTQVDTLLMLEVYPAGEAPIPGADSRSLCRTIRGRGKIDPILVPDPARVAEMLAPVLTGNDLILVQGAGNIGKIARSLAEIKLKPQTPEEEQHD

Row | Structure (SMILES) | IC50
1 | COc1ccc2cc(C(C)C(=O)NC3C(=O)N4C3SC(C)(C)C4C(=O)O)ccc2c1 [4e, (2S,5R,6S)-6-(3'-(11'-methoxynaphthalen-5'-yl)propanamido)-3,3-dimethyl-7-oxo-4-thia-1-azabicyclo[3.2.0]heptane-2-carboxylic acid] | 12.5 µM
2 | Nc1ncnc2c1ncn2[C@@H]1O[C@H](COP(=O)(O)OP(=O)(O)CP(=O)(O)O)[C@@H](O)[C@H]1O [AMP-PCP] | 17 µM

Source: publication PMC4534092, “Novel Penicillin Analogues as Potential Antimicrobial Agents; Design, Synthesis and Docking Studies” (PLoS ONE, 2015)
